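1) Cells in 96-well plates. 2) Compound, 48 h, 5 concentrations. 3) Linear interpolation between surrounding doses. 4) Unreached endpoint = highest concentration. Here, GI50 denotes the concentration required for 50% inhibition of growth.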 Calls of active or inactive are those of the source. Cut-off read from the data, not from the text of the source: active = GI50 up to about 1.1 µM and inactive = higher.
What was measured:
Assay in all cases: inhibition of tumour cell growth, NCI panel, 48 h
786-0 = system: 786-0
DU-145 = system: DU-145
HCC 2998 = system: HCC 2998
HCT-15 = system: HCT-15
HL-60 = system: HL-60
HT-29 = system: HT-29
M14 = system: M14
MDA-MB-231 = system: MDA-MB-231
NCI-H226 = system: NCI-H226
NCI/ADR-RES = system: NCI/ADR-RES
OVCAR-5 = system: OVCAR-5
OVCAR-8 = system: OVCAR-8
RPMI-8226 = system: RPMI-8226
SF-268 = system: SF-268
SF-539 = system: SF-539
SK-MEL-28 = system: SK-MEL-28
SR = system: SR
T47D = system: T47D
UACC-62 = system: UACC-62
UO-31 = system: UO-31

SMILES | GI50 (786-0) | GI50 (DU-145) | GI50 (HCC 2998) | GI50 (HCT-15) [µM] | GI50 (HL-60) | GI50 (HT-29) | GI50 (M14) | GI50 (MDA-MB-231) | GI50 (NCI-H226) | GI50 (NCI/ADR-RES) | GI50 (OVCAR-5) | GI50 (OVCAR-8) | GI50 (RPMI-8226) | GI50 (SF-268) | GI50 (SF-539) | GI50 (SK-MEL-28) | GI50 (SR) | GI50 (T47D) | GI50 (UACC-62) | GI50 (UO-31)
CCCCCCCCCc1cc(-c2ccc(C=O)s2)sc1-c1ccc(C=O)s1 | 28.7 µM (inactive) | 26.7 µM (inactive) | 35.6 µM (inactive) | 24.8 | 16.8 µM (inactive) | 39.5 µM (inactive) | 8.47 µM (inactive) | 26.2 µM (inactive) | 3.04 µM (inactive) | 19.6 µM (inactive) | 29.5 µM (inactive) | 10.4 µM (inactive) | 11.4 µM (inactive) | 34.8 µM (inactive) | 41.1 µM (inactive) | 33.7 µM (inactive) | 4.08 µM (inactive) | 17.1 µM (inactive) | 7.26 µM (inactive) | 17.7 µM (inactive)
COc1ccc(OC)c2nc3c(C(=O)NCCN(C)C)cccc3nc12 | 3.05 µM (inactive) | 5.21 µM (inactive) | 5.77 µM (inactive) | 4.74 | 3.18 µM (inactive) | 1.8 µM (inactive) | 4.69 µM (inactive) | 2.94 µM (inactive) | 4.66 µM (inactive) | 5.25 µM (inactive) | 10.3 µM (inactive) | 2.54 µM (inactive) | 2.84 µM (inactive) | 3.94 µM (inactive) | 4.5 µM (inactive) | 7.83 µM (inactive) | 2.17 µM (inactive) | 14.1 µM (inactive) | 7.71 µM (inactive) | 2.72 µM (inactive)
Cc1cc(N(CCC#N)CCC#N)ccc1/C=C(\NC(=O)/C=C/c1ccccc1)C(=O)NN | 30.6 µM (inactive) | > 100 µM (inactive) | > 100 µM (inactive) | > 100 | > 100 µM (inactive) | > 100 µM (inactive) | > 100 µM (inactive) | 32.4 µM (inactive) | > 55.6 µM (inactive) | > 100 µM (inactive) | > 100 µM (inactive) | > 54.1 µM (inactive) | > 100 µM (inactive) | > 53.2 µM (inactive) | 39.1 µM (inactive) | > 100 µM (inactive) | > 100 µM (inactive) | 55 µM (inactive) | > 91 µM (inactive) | > 100 µM (inactive)
O=C(Cn1c(=O)oc2ccc(C(=O)c3ccc(F)cc3)cc21)c1ccccc1 | > 100 µM (inactive) | > 100 µM (inactive) | > 100 µM (inactive) | > 100 | > 100 µM (inactive) | 42.7 µM (inactive) | > 100 µM (inactive) | > 100 µM (inactive) | > 100 µM (inactive) | > 100 µM (inactive) | > 100 µM (inactive) | > 100 µM (inactive) | > 100 µM (inactive) | > 100 µM (inactive) | > 100 µM (inactive) | > 100 µM (inactive) | > 100 µM (inactive) | 93.5 µM (inactive) | > 100 µM (inactive) | 25.7 µM (inactive)
CCCCNc1nc2ccccc2c2c1ncn2CC(C)C | > 100 µM (inactive) | > 100 µM (inactive) | > 100 µM (inactive) | > 100 | > 100 µM (inactive) | > 100 µM (inactive) | > 100 µM (inactive) | > 100 µM (inactive) | > 100 µM (inactive) | > 100 µM (inactive) | > 100 µM (inactive) | > 100 µM (inactive) | > 100 µM (inactive) | > 100 µM (inactive) | > 100 µM (inactive) | > 100 µM (inactive) | > 100 µM (inactive) | > 100 µM (inactive) | > 100 µM (inactive) | > 100 µM (inactive)
